Assay results published in the supplement of paper PMC11451515.

Tested on: SEM cells
Experiment: cell viability relative to DMSO control; higher = less cytotoxic
Settings: 48 h
Method in brief: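 NOMO1, SEM and P12-Ichikawa leukemia cells spent at least four passages adapting to each medium before use. They were seeded at 500 cells/well (NOMO1, SEM) or 1000 cells/well (P12-Ichikawa) in 5 μl in 1536-well plates and pin-dosed with library compounds in DMSO at 11 threefold steps from 47 μM down to 0.79 nM. After 48 h at 37°C, CellTiter-Glo One luminescence was read. Viability is reported as a percentage of the DMSO wells on each plate, with cell-free wells as background.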

[1] = HPLM + 10% dialyzed FBS, 0.000781 µM
[2] = HPLM + 10% dialyzed FBS, 0.00234 µM
[3] = HPLM + 10% dialyzed FBS, 0.00702 µM
[4] = HPLM + 10% dialyzed FBS, 0.0211 µM
[5] = HPLM + 10% dialyzed FBS, 0.0632 µM
[6] = HPLM + 10% dialyzed FBS, 0.19 µM
[7] = HPLM + 10% dialyzed FBS, 0.569 µM
[8] = HPLM + 10% dialyzed FBS, 1.71 µM
[9] = HPLM + 10% dialyzed FBS, 5.12 µM
[10] = HPLM + 10% dialyzed FBS, 15.4 µM
[11] = HPLM + 10% dialyzed FBS, 46.1 µM
[12] = RPMI 5 mM glucose + 10% FBS, 0.000781 µM
[13] = RPMI 5 mM glucose + 10% FBS, 0.00234 µM
[14] = RPMI 5 mM glucose + 10% FBS, 0.00702 µM
[15] = RPMI 5 mM glucose + 10% FBS, 0.0211 µM
[16] = RPMI 5 mM glucose + 10% FBS, 0.0632 µM
[17] = RPMI 5 mM glucose + 10% FBS, 0.19 µM
[18] = RPMI 5 mM glucose + 10% FBS, 0.569 µM
[19] = RPMI 5 mM glucose + 10% FBS, 1.71 µM
[20] = RPMI 5 mM glucose + 10% FBS, 5.12 µM
[21] = RPMI 5 mM glucose + 10% FBS, 15.4 µM
[22] = RPMI 5 mM glucose + 10% FBS, 46.1 µM
[23] = RPMI 5 mM glucose + 10% dialyzed FBS, 0.000781 µM
[24] = RPMI 5 mM glucose + 10% dialyzed FBS, 0.00234 µM
[25] = RPMI 5 mM glucose + 10% dialyzed FBS, 0.00702 µM
[26] = RPMI 5 mM glucose + 10% dialyzed FBS, 0.0211 µM
[27] = RPMI 5 mM glucose + 10% dialyzed FBS, 0.0632 µM
[28] = RPMI 5 mM glucose + 10% dialyzed FBS, 0.19 µM
[29] = RPMI 5 mM glucose + 10% dialyzed FBS, 0.569 µM
[30] = RPMI 5 mM glucose + 10% dialyzed FBS, 1.71 µM
[31] = RPMI 5 mM glucose + 10% dialyzed FBS, 5.12 µM
[32] = RPMI 5 mM glucose + 10% dialyzed FBS, 15.4 µM
[33] = RPMI 5 mM glucose + 10% dialyzed FBS, 46.1 µM

SMILES	cell viability [1]	cell viability [2]	cell viability [3]	cell viability [4]	cell viability [5]	cell viability [6]	cell viability [7]	cell viability [8]	cell viability [9]	cell viability [10]	cell viability [11]	cell viability [12]	cell viability [13]	cell viability [14]	cell viability [15]	cell viability [16]	cell viability [17]	cell viability [18]	cell viability [19]	cell viability [20]	cell viability [21]	cell viability [22]	cell viability [23]	cell viability [24]	cell viability [25]	cell viability [26]	cell viability [27]	cell viability [28]	cell viability [29]	cell viability [30]	cell viability [31]	cell viability [32]	cell viability [33]
NCC/1=C/NC(=S)N1[C@H]2CCC3=C(F)C=C(F)C=C3C2	102%	107%	110%	109%	93.3%	102%	105%	120%	99.5%	94.5%	43.8%	118%	122%	123%	119%	112%	114%	120%	115%	115%	108%	15.4%	–	–	–	–	–	–	–	–	–	–	–
N[S+](=O)([O-])c1cc2c(cc1Cl)NCN[S+]2(=O)[O-]	92.5%	102%	101%	94.6%	104%	111%	114%	109%	114%	121%	107%	96.2%	115%	109%	104%	110%	107%	114%	119%	124%	116%	120%	88.4%	100%	112%	124%	107%	124%	107%	134%	117%	115%	151%
CCC1=C2CN3C(=O)\C4=C(/C=C3/C2=NC5=CC=C(O)C=C15)[C@@](O)(CC)C(=O)OC4	96.7%	95.6%	91.4%	28.1%	19.3%	17%	11.6%	6.74%	6.74%	6.36%	4.6%	108%	102%	67.7%	25.6%	15.6%	16.1%	12.9%	6.76%	7.58%	5.69%	5.1%	94.5%	89.1%	65%	28%	16.6%	15.2%	12.8%	6.01%	7.69%	5.69%	4.62%
CNCCN(C)Cc1c[nH]nc1-c1ccc(O[C@H]2C[C@H](OCCC3CCOCC3)C2)cc1	98.5%	96.9%	116%	110%	112%	122%	116%	112%	103%	60.6%	35.9%	101%	103%	147%	117%	115%	120%	107%	130%	45.2%	45.1%	24.7%	130%	111%	125%	135%	156%	118%	145%	156%	112%	73.1%	29.4%
C=C1C(=O)O[C@@H]2[C@H]3O[C@]3(C)CC/C=C(\C)CC[C@@H]12	96.1%	99.9%	122%	104%	116%	115%	98.5%	40.5%	4.45%	3.12%	4%	81.4%	84.9%	103%	93.9%	87.6%	73%	69.5%	19.9%	2.98%	1.9%	2.67%	104%	97%	102%	114%	106%	105%	95.9%	42.4%	3.46%	1.79%	3.03%
C[C@]12CCC(=O)C(O)=C1CC[C@@H]1[C@@H]2CC[C@]2(C)C(=O)CC[C@@H]12	98.8%	113%	110%	114%	120%	117%	113%	121%	108%	101%	104%	98.2%	128%	123%	106%	122%	116%	127%	111%	103%	114%	112%	119%	120%	120%	130%	107%	112%	121%	123%	107%	116%	111%
Cc1nc(C(=O)NCC(=O)O)c(O)c2ccc(Oc3ccccc3)cc12	109%	109%	115%	112%	116%	108%	99.5%	115%	92.8%	102%	112%	101%	108%	112%	115%	103%	99.4%	95.7%	94.8%	104%	108%	99.2%	113%	112%	123%	116%	119%	112%	113%	113%	103%	115%	122%
NC/1=N/C(=O)C2=C([NH]C=C2CCC3=CC=C(C=C3)C(=O)N[C@@H](CCC(O)=O)C(O)=O)N1	118%	103%	107%	115%	114%	110%	80.2%	45.7%	39.4%	38.3%	35.8%	98.3%	105%	103%	107%	99.7%	107%	91.9%	100%	83.2%	73.9%	69.8%	98.8%	95%	100%	97.3%	97%	107%	109%	52.2%	36.2%	32.3%	23.3%
CN1CCN(c2cc(C(=O)Nc3ccc4c(c3)-c3c(c(C(N)=O)nn3-c3ccc(F)cc3)CC4)c(Cl)cn2)CC1	93.3%	95.7%	103%	109%	116%	110%	105%	103%	110%	81.8%	4.03%	–	–	–	–	–	–	–	–	–	–	–	125%	109%	121%	131%	138%	120%	103%	104%	109%	106%	3.39%
CN1\C(=C(O)/C2=C(C=C(Cl)S2)[S+]1([O-])=O)C(=O)NC3=NC=CC=C3	124%	130%	119%	24.6%	127%	114%	114%	114%	112%	101%	106%	91.4%	88%	82.7%	14.3%	88.3%	88.1%	68.8%	85.4%	99.6%	87.5%	74.8%	125%	123%	118%	25.3%	123%	134%	104%	102%	103%	111%	87.7%
Cc1cccc(Nc2nc(N[C@@H]3CCCC[C@@H]3N)ncc2C(N)=O)c1	109%	107%	112%	104%	107%	118%	114%	88.6%	44%	30.9%	32.3%	66.2%	80.1%	78%	79.7%	69.8%	89.4%	87.1%	74.2%	33.8%	11.5%	14.5%	95.7%	126%	104%	112%	103%	114%	96.2%	81.1%	25.6%	23.3%	25%
Cc1n[nH]c2ccc(-c3cncc(OC[C@@H](N)Cc4c[nH]c5ccccc45)c3)cc12	98.9%	104%	89.8%	97.8%	83.7%	40.6%	32.9%	19.2%	2.11%	0.908%	1.79%	94.9%	111%	88.6%	102%	95.7%	67%	59.7%	25%	2.35%	0.602%	1.49%	103%	99.4%	84.2%	92.3%	89%	56.1%	47.7%	26.6%	2.83%	0.892%	1.9%
COc1cc([C@@H]2c3cc4c(cc3[C@@H](O)C3COC(=O)C32)OCO4)cc(OC)c1O (stereo partly drawn)	73.2%	86.7%	86%	21.1%	84.4%	46.9%	22.2%	24.3%	16.6%	11.3%	9.58%	96.4%	83.3%	101%	13.1%	104%	47.6%	19.7%	14.7%	9.69%	4.01%	4.26%	78.6%	70.2%	98.2%	16.1%	82.9%	52.8%	19%	19.5%	11.8%	7.08%	4.88%
Cc1n[nH]c(C)c1Cc1sc2c(c1C(=O)N1C[C@H](O)CO1)c(=O)n(C)c(=O)n2CC(C)C	81.6%	102%	90.5%	105%	80.3%	79.3%	67.7%	68%	62.2%	58.4%	43.4%	110%	111%	116%	122%	98.2%	106%	89.1%	85.2%	87.9%	85.9%	63.5%	97.8%	105%	108%	103%	96.2%	88.8%	103%	93.1%	87.4%	85%	74.8%
CCCCc1ccc(N[S+](=O)([O-])c2ccc(C)c(C(=O)N3CCN(c4cccc(C)c4C)CC3)c2)cc1	–	–	–	–	–	–	–	–	–	–	–	120%	124%	138%	17.1%	129%	118%	137%	126%	119%	106%	98.2%	117%	96.2%	127%	21.2%	118%	118%	106%	117%	107%	117%	84.9%
COC1=CC2=C(C=C1CC3=C(F)C(=CC=C3)Cl)C(=O)\C(=C/N2[C@H](CO)C(C)C)C(O)=O	120%	120%	119%	26.7%	115%	133%	113%	106%	117%	93.7%	23.7%	–	–	–	–	–	–	–	–	–	–	–	–	–	–	–	–	–	–	–	–	–	–
